Consider eleven compounds from ChEMBL document CHEMBL4706615, “(Carbonyl)oxyalkyl linker-based amino acid prodrugs of the HIV-1 protease inhibitor atazanavir that enhance oral bioavailability and plasma trough concentration” (Eur J Med Chem, 2020).

SMILES strings stand for the structures. In brackets after ≈: the same amount, converted by molar mass.

Data set [1] can be described thus: Half life in 0.1 N aqueous HCl buffer at pH 1. It counts as physicochemical. The following applies: for half-life: 0.1 N aqueous HCl buffer.
Data set [2] in a line: Half life in acetate buffer at pH 4. The data set is classed as physicochemical. Particulars: for half-life: acetate buffer; for t1/2: buffer.
Data set [3] can be described thus: Half life in phosphate buffer at pH 6.5. It counts as physicochemical. The following applies: for t1/2: buffer; for half-life: phosphate buffer.
A short description of data set [4]: Solubility of compound in 0.1 N aqueous HCl buffer at pH 1. It counts as physicochemical.
The nature of data set [5]: Solubility of compound in acetate buffer at pH 4. It counts as physicochemical.
Data set [6] in a line: Cmax in Sprague-Dawley rat assessed as atazanavir level at 3 mg/kg equiv of atazanavir administered orally. It counts as ADME, organism-based. Further details: route oral, dose 3 mg/kg(equiv). Particulars: in vivo, po.
The nature of data set [7]: Tmax in Sprague-Dawley rat assessed as atazanavir level at 3 mg/kg equiv of atazanavir administered orally. The data set is classed as ADME, organism-based. The following applies: in vivo, po.
Data set [8] in a line: AUClast in Sprague-Dawley rat assessed as atazanavir level at 3 mg/kg equiv of atazanavir administered orally. The data set is classed as ADME, organism-based. Also on record: route oral, time 0 - last, dose 3 mg/kg(equiv). Particulars: in vivo, po.
Data set [9] can be described thus: Trough plasma concentration in Sprague-Dawley rat assessed as atazanavir level at 3 mg/kg equiv of atazanavir administered orally measured after 24 hrs. The data set is classed as ADME, organism-based. Particulars: in vivo, po; for Cmin: BLD = below limit of detection; for concentration: read-out: Cmin.
Data set [10] can be described thus: Relative oral bioavailability in Sprague-Dawley rat assessed as atazanavir level at 3 mg/kg equiv of atazanavir. The data set is classed as ADME, organism-based. The following applies: in vivo.
The nature of data set [11]: Total AUC in Sprague-Dawley rat assessed as ratio of atazanavir to parent level at 3 mg/kg equiv of atazanavir administered orally. It counts as ADME, organism-based. The following applies: in vivo, po.
Data set [12] in a line: Solubility of compound in phosphate buffer at pH 6.5. It counts as physicochemical.
Data set [13] in a line: Trough plasma concentration in Sprague-Dawley rat at 30 mg/kg, po measured after 24 hrs. Particulars: read-out: Cmin. It counts as ADME, organism-based.
Data set [14] is described as follows: Ratio of AUClast in Sprague-Dawley rat assessed as atazanavir to parent level at 3 mg/kg equiv of atazanavir administered orally. The data set is classed as ADME, organism-based. Particulars: in vivo, po.
Data set [15] in a line: Solubility of compound in fasted state simulated intestinal fluid. The following applies: simulated gi fluid. It counts as physicochemical.
The nature of data set [16]: Stability in rat plasma measured after 60 mins. It counts as ADME, cell-free. The following applies: 1 h.
Data set [17] is described as follows: Stability of compound in 0.1 N aqueous HCl buffer at pH 1. It counts as physicochemical.
Data set [18] can be described thus: Stability of compound in acetate buffer at pH 4. It counts as physicochemical.
A short description of data set [19]: Stability of compound in phosphate buffer at pH 6.5. The data set is classed as physicochemical.
A short description of data set [20]: Half life in rat hepatocytes measured after 120 mins. The data set is classed as ADME, cell-based, Hepatocyte.
Data set [21] is described as follows: Half life in rat plasma measured after 60 mins. The data set is classed as ADME, cell-free.
The mark [22] stands for this setting: acetate buffer, read-out: solubility.
[23] abbreviates: 0.1 N aqueous HCl buffer, read-out: solubility.

For `COC(=O)N[C@H](C(=O)N[C@@H](Cc1ccccc1)[C@H](CN(Cc1ccc(-c2ccccn2)cc1)NC(=O)[C@@H](NC(=O)OC)C(C)(C)C)OC(=O)OC(C)OC(=O)[C@@H](N)C(C)C)C(C)(C)C` (stereo in doubt; 18), the half-life in data set [1] and in [2] was greater than 20.8 days throughout. The compound further gave a t1/2 in [3] greater than 10.9 h. For the same compound, the solubility (as a rule, how much of the substance goes into solution per volume) was greater than 1.2 mg/mL in [4] (buffer) and greater than 3000 µg/mL in [5] (setting [22]). The Cmax (as a rule, the peak of the concentration-time curve) in data set [6] is 320 nM. Besides, the Tmax (usually the time from dosing to the highest level) in [7] turned out to be 48 min. Besides, in data set [8], the AUClast amounted to 1013 nM·h. Also, the Cmin result in data set [9] was “Bld”. Also, in [10], the F is on record as 53%. Further, the “Ratio AUC” value in data set [11] worked out at 2.6.
With `COC(=O)N[C@H](C(=O)N[C@@H](Cc1ccccc1)[C@H](CN(Cc1ccc(-c2ccccn2)cc1)NC(=O)[C@@H](NC(=O)OC)C(C)(C)C)OC(=O)OCOC(=O)[C@@H](N)Cc1ccccc1)C(C)(C)C`, the half-life (as a rule, the time in which the quantity being followed falls by half) in data set [1] was 0.708 days; in data set [2], 0.688 days.
`COC(=O)N[C@H](C(=O)N[C@@H](Cc1ccccc1)[C@@H](O)CN(Cc1ccc(-c2ccccn2)cc1)NC(=O)[C@@H](NC(=O)OC)C(C)(C)C)C(C)(C)C` [ATAZANAVIR]: the solubility in data set [5] (setting [22]) and in [12] was less than 1 µg/mL in each case. In [13], the concentration at 24 h came to 5 nM.
`COC(=O)N[C@H](C(=O)N[C@@H](Cc1ccccc1)[C@H](CN(Cc1ccc(-c2ccccn2)cc1)NC(=O)[C@@H](NC(=O)OC)C(C)(C)C)OC(=O)OC(C)OC(=O)[C@@H](C(C)C)N(C)C)C(C)(C)C` (stereo in doubt; 23): the half-life in [1], in data set [2] and in data set [3] was greater than 20.8 days each time. Further, the solubility in [4] (setting [23]) was greater than 1.7 mg/mL; in data set [5] (setting [22]), greater than 600 µg/mL; in [12] it was less than 1 µg/mL.
With `COC(=O)N[C@H](C(=O)N[C@@H](Cc1ccccc1)[C@H](CN(Cc1ccc(-c2ccccn2)cc1)NC(=O)[C@@H](NC(=O)OC)C(C)(C)C)OC(=O)OC(C)OC(=O)[C@H](C(C)C)N(C)C)C(C)(C)C` (stereo in doubt; 22), the values for the t1/2 in data set [2] and in [3] were 13.93 days and 214.9 h, respectively. Further, the solubility in data set [4] (buffer) was greater than 1.8 mg/mL; in data set [5] (buffer), greater than 490 µg/mL; in data set [15] it was 11 µg/mL (≈ 12 µM). The Cmax in data set [6] came out at 398 nM. Besides, the Tmax in [7] was 48 min. In addition, in data set [8], the AUClast turned out to be 1958 nM·h. Moreover, the concentration in data set [9] came out at 16.7 nM. In addition, the F in data set [10] is on record as 103%. Moreover, the “Ratio AUC” value stood at 92.1 in [11] and 17 in data set [14]. Also, the Stabilty entry in data set [16] is on record as “Stable”.
`COC(=O)N[C@H](C(=O)N[C@@H](Cc1ccccc1)[C@H](CN(Cc1ccc(-c2ccccn2)cc1)NC(=O)[C@@H](NC(=O)OC)C(C)(C)C)OC(=O)OC(C)OC(=O)[C@@H](C(C)C)N(C)C)C(C)(C)C` (stereo in doubt; 24): the t1/2 in data set [1] (buffer) was greater than 20.8 days. Also, the results for the solubility in data set [4] (buffer) and in [5] (buffer) were greater than 2.6 mg/mL and greater than 540 µg/mL, respectively. For the same compound, the Cmax in data set [6] came to 324 nM. Further, the Tmax in [7] was 30 min. Moreover, the AUClast in data set [8] amounted to 1737 nM·h. The concentration in data set [9] stood at 24 nM. Besides, the F in data set [10] was found to be 91%. For the same compound, the “Ratio AUC” value in data set [11] is on record as 104.8; in [14], 22.
Turning to `COC(=O)N[C@H](C(=O)N[C@@H](Cc1ccccc1)[C@H](CN(Cc1ccc(-c2ccccn2)cc1)NC(=O)[C@@H](NC(=O)OC)C(C)(C)C)OC(=O)OCOC(=O)[C@@H](N)C(C)C)C(C)(C)C`, the Stabilty entry in data set [17], in data set [18] and in data set [19] was “Unstable” each time.
As for `COC(=O)N[C@H](C(=O)N[C@@H](Cc1ccccc1)[C@H](CN(Cc1ccc(-c2ccccn2)cc1)NC(=O)[C@@H](NC(=O)OC)C(C)(C)C)OC(=O)OC(C)OC(=O)[C@@H](N)C(C)C)C(C)(C)C` (stereo in doubt; 20), the values for the t1/2 in data set [2] and in data set [3] were 13.93 days and 5.3 h, respectively. Besides, the values for the solubility in [4] (buffer) and in data set [5] (buffer) were greater than 3.2 mg/mL and greater than 1800 µg/mL, respectively.
With `COC(=O)N[C@H](C(=O)N[C@@H](Cc1ccccc1)[C@H](CN(Cc1ccc(-c2ccccn2)cc1)NC(=O)[C@@H](NC(=O)OC)C(C)(C)C)OC(=O)OCOC(=O)[C@H](C(C)C)N(C)C)C(C)(C)C`, the half-life in [1] is greater than 20.8 days; in [2] it was greater than 20.8 days; in data set [3], 4.32 days. For the same compound, the solubility in [4] (setting [23]) was greater than 1.2 mg/mL; in [5] (setting [22]) it was greater than 450 µg/mL; in [12], 5 µg/mL (≈ 5.52 µM). The Cmax in data set [6] is 573 nM. Also, the Tmax in data set [7] came out at 24 min. For the same compound, the AUClast in [8] came out at 883 nM·h. The concentration in data set [9] came to 1.9 nM. Also, the F in [10] came to 46%. Also, the “Ratio AUC” value in data set [11] was found to be 7.7; in [14] it was 2.3.
As to `COC(=O)N[C@H](C(=O)N[C@@H](Cc1ccccc1)[C@H](CN(Cc1ccc(-c2ccccn2)cc1)NC(=O)[C@@H](NC(=O)OC)C(C)(C)C)OC(=O)OC(C)OC(=O)[C@H](C(C)C)N(C)C)C(C)(C)C` (stereo in doubt; 21), the half-life is greater than 20.8 days in [1], greater than 20.8 days in [2], 25 min in data set [20] and 41 min in data set [21]. The compound further returned a t1/2 in [3] greater than 500 h. The solubility in [4] (setting [23]) is greater than 1.9 mg/mL; in data set [5] (setting [22]) it was greater than 980 µg/mL; in data set [12] it was less than 1 µg/mL; in data set [15], 3 µg/mL (≈ 3.26 µM). Besides, the Cmax in [6] turned out to be 581 nM. The time to peak (Tmax) in data set [7] came to 36 min. For the same compound, the AUClast in data set [8] worked out at 1097 nM·h. The concentration in data set [9] came out at 1.9 nM. The F in data set [10] is recorded as 58%. For the same compound, the entries for the “Ratio AUC” value in data set [11] and in data set [14] were 5.7 and 1, respectively.
As to `COC(=O)N[C@H](C(=O)N[C@@H](Cc1ccccc1)[C@H](CN(Cc1ccc(-c2ccccn2)cc1)NC(=O)[C@@H](NC(=O)OC)C(C)(C)C)OC(=O)OCOC(=O)[C@@H](C(C)C)N(C)C)C(C)(C)C`, the results for the half-life in data set [1], in data set [2] and in [3] were greater than 20.8 days, 15.7 days and 2.67 days, respectively. In addition, the solubility in [4] (setting [23]) is greater than 1.8 mg/mL; in [5] (setting [22]), greater than 500 µg/mL; in [12], 6 µg/mL (≈ 6.62 µM). In addition, the Cmax in data set [6] worked out at 639 nM. The Tmax in [7] was 30 min. The AUClast in data set [8] was 689 nM·h. The Cmin result in [9] is recorded as “Bld”. Besides, the F in data set [10] turned out to be 36%. In addition, the “Ratio AUC” value in data set [11] is recorded as 5.3; in [14], 2.
